Assay results taken from patent US6527981B1, “Azole/amine oxide preservatives” (Lonza Inc., priority 1999, dated 2003).
Converted amounts (≈) assume the structure as drawn. Where two headings read alike, the source gives them in different places.

Legend:
Assay in all cases: agar dilution plate method, wood rot fungi (MIC, IC50, percent retardation)
Format in all cases: cell-based
[1] = tested on: P. placenta (brown rot fungi)
[2] = tested on: C. globosum (soft rot decay fungi); conditions: for MIC: Chaetomium globosum; for IC50 C. globosum: Table2D curve fitting
[3] = tested on: T. versicolor (white rot fungi); conditions: for MIC: Trametes versicolor
[4] = tested on: G. trabeum (brown rot fungi); conditions: for MIC: Gloeophyllum trabeum
[5] = ppm of amine oxide or didecyldimethyl ammonium chloride, Table2D curve fitting
[6] = ppm of amine oxide or didecyldimethyl ammonium chloride
[7] = amine oxide alone, 100% growth retardation
[8] = amine oxide alone, 100% growth retardation, read-out: MIC (ppm of amine oxides) P. placenta
[9] = amine oxide alone, 100% growth retardation, read-out: MIC (ppm of amine oxides) C. globosum
[10] = amine oxide alone, 100% growth retardation, read-out: MIC (ppm of amine oxides) T. versicolor
[11] = amine oxide alone, 100% growth retardation, read-out: MIC (ppm of amine oxides) G. trabeum

CCCCCCCCCC[N+](C)(C)CCCCCCCCCC.[Cl-] [Bardac ® 2280, didecyldimethyl ammonium chloride]
MIC ([1]; Table 8, ppm of amine oxide or didecyldimethyl ammonium chloride, read-out: MIC P. placenta): 1000 µg/mL | IC50 P. placenta [1, 5]: <5 ppm | MIC ([2]; read-out: MIC C. globosum): > 1000 µg/mL | IC50 C. globosum [2, 6]: 28 ppm | MIC ([3]; Table 8, ppm of amine oxide or didecyldimethyl ammonium chloride, read-out: MIC T. versicolor): > 1000 µg/mL | IC50 T. versicolor [3, 5]: 28 ppm | MIC ([4]; Table 8, ppm of amine oxide or didecyldimethyl ammonium chloride, read-out: MIC G. trabeum): > 1000 µg/mL | IC50 G. trabeum [4, 5]: 8 ppm

tallow-alkyl-di(hydroxyethyl)amine oxide [Tallow-di(hydroxyethyl)-amine oxide]
MIC (ppm of amine oxides) P. placenta [1, 7]: >1000 ppm | MIC (ppm of amine oxides) C. globosum [2, 7]: >1000 ppm | MIC (ppm of amine oxides) T. versicolor [3, 7]: >1000 ppm | MIC (ppm of amine oxides) G. trabeum [4, 7]: >1000 ppm

branched alkyl (C10-C14) dimethylamine oxide [Branched alkyl (C10-C14) DMAO]
IC50 P. placenta [1]: 89 ppm | MIC (ppm of amine oxides) P. placenta [1]: 500 ppm | MIC P. placenta [1]: 500 ppm | Qa, concentration of amine oxide alone required to yield 100% retardation, P. placenta [1]: 500 ppm | MIC C. globosum ([2]; Table 8, ppm of amine oxide or didecyldimethyl ammonium chloride): >1000 ppm | MIC (ppm of amine oxides) C. globosum [2, 7]: >1000 ppm | IC50 C. globosum [2, 6]: 153 ppm | IC50 T. versicolor [3]: 84 ppm | MIC (ppm of amine oxides) T. versicolor [3]: 500 ppm | MIC T. versicolor [3]: 500 ppm | Qa, concentration of amine oxide alone required to yield 100% retardation, T. versicolor [3]: 500 ppm | IC50 G. trabeum [4]: 44 ppm | MIC (ppm of amine oxides) G. trabeum [4]: 250 ppm | MIC G. trabeum [4]: 250 ppm | Qa, concentration of amine oxide alone required to yield 100% retardation, G. trabeum [4]: 250 ppm

CCCCCCCCCCCCCCCCCC[N+](C)(C)[O-] [Octadecyl-DMAO, octadecyl dimethylamine oxide]
Qa, concentration of amine oxide alone required to yield 100% retardation, P. placenta ([1]; amine oxide alone): 1000 ppm | MIC [1, 8]: > 1000 µg/mL | MIC [2, 9]: > 1000 µg/mL | MIC [3, 10]: > 1000 µg/mL | Qa, concentration of amine oxide alone required to yield 100% retardation, T. versicolor ([3]; amine oxide alone): 1000 ppm | MIC [4, 11]: > 1000 µg/mL | Qa, concentration of amine oxide alone required to yield 100% retardation, G. trabeum ([4]; amine oxide alone): 1000 ppm

coco-alkyl-di(hydroxyethyl)amine oxide [Coco-di(hydroxyethyl)-amine oxide]
MIC (ppm of amine oxides) P. placenta [1, 7]: 500 ppm | MIC (ppm of amine oxides) C. globosum [2, 7]: >1000 ppm | MIC (ppm of amine oxides) T. versicolor [3, 7]: 500 ppm | MIC (ppm of amine oxides) G. trabeum [4, 7]: 500 ppm

CCCCCCCCCC[N+](C)(C)[O-] [Decyl-DMAO, decyl dimethylamine oxide]
Qa, concentration of amine oxide alone required to yield 100% retardation, P. placenta ([1]; amine oxide alone): 500 ppm | MIC [1, 8]: 500 µg/mL (≈ 2.48 mM) | MIC [2, 9]: > 1000 µg/mL | MIC [3, 10]: 750 µg/mL (≈ 3.72 mM) | Qa, concentration of amine oxide alone required to yield 100% retardation, T. versicolor ([3]; amine oxide alone): 750 ppm | MIC [4, 11]: 250 µg/mL (≈ 1.24 mM) | Qa, concentration of amine oxide alone required to yield 100% retardation, G. trabeum ([4]; amine oxide alone): 250 ppm

CCCCCCCCCCCCCCCCCCCCCC[N+](C)(C)[O-] [Behenyl DMAO]
Qa, concentration of amine oxide alone required to yield 100% retardation, P. placenta ([1]; amine oxide alone): 1000 ppm | MIC (ppm of amine oxides) P. placenta [1, 7]: >1000 ppm | MIC (ppm of amine oxides) C. globosum [2, 7]: >1000 ppm | Qa, concentration of amine oxide alone required to yield 100% retardation, T. versicolor ([3]; amine oxide alone): 1000 ppm | MIC (ppm of amine oxides) T. versicolor [3, 7]: >1000 ppm | Qa, concentration of amine oxide alone required to yield 100% retardation, G. trabeum ([4]; amine oxide alone): 1000 ppm | MIC (ppm of amine oxides) G. trabeum [4, 7]: >1000 ppm
